Assay results published in PubChem BioAssay (NCI).
Several values for one entry are separate records, joined by “and”; a condition that tells them apart may be missing. Equal values may be shown once.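 Test compounds were applied to cells in 96-well plates for 48 hours at 5 doses. GI50 marks 50% less growth. TGI: concentration producing complete growth inhibition.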 Where a SMILES comes first, the peptide text is derived from it. [ ]: non-standard residue; d: D form. The star is where a group is joined. Bn2Val = CC(C)[C@@H](C(=O)*)N(Cc1ccccc1)Cc1ccccc1; NH(3,4-diMeO-benzyl) = COc1ccc(CN*)cc1OC; NMeV = CN[C@H](C(=O)O)C(C)C; dNMeA = CN[C@H](C)C(=O)O

Key:
Assay in all cases: NCI anticancer screen, dose series, 48 h
OVCAR-3 ovarian = test system: OVCAR-3 ovarian
SK-MEL-28 melanoma = test system: SK-MEL-28 melanoma
T-47D breast = test system: T-47D breast
HS 578T breast = test system: HS 578T breast
MDA-MB-435 = test system: MDA-MB-435
BT-549 breast = test system: BT-549 breast
NCI/ADR-RES ovarian = test system: NCI/ADR-RES ovarian

SMILES	TGI (OVCAR-3 ovarian)	TGI (SK-MEL-28 melanoma)	TGI (T-47D breast)	TGI (HS 578T breast) [µM]	TGI (MDA-MB-435)	TGI (BT-549 breast)	TGI (NCI/ADR-RES ovarian)	GI50 (OVCAR-3 ovarian) [µM]	GI50 (SK-MEL-28 melanoma) [µM]	GI50 (T-47D breast) [µM]	GI50 (HS 578T breast) [µM]	GI50 (MDA-MB-435) [µM]	GI50 (BT-549 breast) [µM]	GI50 (NCI/ADR-RES ovarian) [µM]
COc1cc2c(NCCCCCCO[N+](=O)[O-])ncnc2c(OC)c1OC	> 78 µM	> 83 µM	> 93.2 µM	> 87.4	42.3 µM	56 µM	51.3 µM							
NS(=O)(=O)c1ccc(-n2nc(-c3ccc(Br)cc3)ccc2=O)cc1	> 10 µM	> 10 µM	> 10 µM	> 10	> 10 µM	> 10 µM	> 10 µM	> 10	> 10	> 10	> 10	3.72	> 10	> 10
COc1ccccc1NC(=O)c1ccc(/C=C/C(=O)c2nccn2C)cc1	0.988 µM	1.44 µM	2.58 µM	9.8	1.3 µM	1.19 µM	9.77 µM	0.459	0.57	0.711	1.1	0.548	0.509	0.806
COc1cc2c(c(OC)c1OC)-c1ccc(NCc3ccccc3)c(=O)cc1[C@@H](NC(C)=O)CC2	2.82 µM	31.5 µM	41.5 µM	43	0.486 µM	26.1 µM	> 100 µM	0.309	0.499	0.589	0.362	0.187	1.41	18.7
CN1CCN(Cc2ccc(NC(=O)c3cncc(C#Cc4cnc(N)c5ccccc45)c3)cc2C(F)(F)F)CC1	0.967 µM	0.988 µM	4.11 µM	1.18	0.783 µM	5.8 µM	1.21 µM	0.41	0.513	1.01	0.371	0.348	1.57	0.556
CNC(=O)c1cc(Oc2ccc3c(c2)sc2nc(-c4ccc(N)cc4)cn23)ccn1	0.67 µM	> 100 µM	57.6 µM	> 100		51.6 µM	> 100 µM	0.198	4.99	0.397	0.224		0.5	0.211
COc1nc2c(cc1S(=O)(=O)c1ccccc1)CCc1c-2cnn1-c1ccccc1Cl	> 100 µM	> 100 µM		> 100	> 100 µM	> 100 µM	> 100 µM	8.17	> 100		4.7	8.94	3.49	8.24
COc1ccc(CN2CCCC(C(=O)c3ccc(C(F)(F)F)cc3)C2)c(O)c1 (stereo not given)	> 100 µM	43.9 µM	80.1 µM	> 100	83.3 µM	71.9 µM	> 100 µM	36.2	17.1	22.1	24.7	23.4	24.3	26.7
COC(=O)[C@@H](C)C[C@H](Cc1ccccc1)NC(=O)c1nc([C@@H](C[C@H](C(C)C)N(C)C(=O)[C@@H](NC(=O)[C@H]2CCCN2C)C(C)C)OC(C)=O)sc1C	> 25 µM	> 25 µM		15.8	< 0.0025 µM	0.145 µM	> 25 µM	< 0.0025	0.0165		< 0.0025	< 0.0025	< 0.0025	0.235
CCOc1ccc2nc(NC(=O)/C(CC(=O)CC(C3=C(O)c4ccccc4CC3=O)c3ccccc3)=N\O)sc2c1 (stereo not given)	> 100 µM	> 100 µM	> 100 µM	> 100	> 100 µM	> 100 µM	> 100 µM							
CCCNC(=O)OCc1c(COC(=O)NCCC)c(-c2ccc(Cl)c(Cl)c2)n2c1CCC2	41.5 µM		> 100 µM	26.2	29.8 µM	15.9 µM	17.4 µM							
CCN1CCN(c2nc(NCCNc3ccnc4cc(Cl)ccc34)c3ccccc3n2)CC1	4.2 µM	3.81 µM	4.42 µM	7.36	3.14 µM	5.39 µM	25.8 µM	1.87	2.04	1.92	2.19	1.64	2.01	4.57
O=C1c2ccccc2C(=O)c2c1ccc1[nH]c(CCl)nc21	3.03 µM	18.8 µM	4.37 µM	14.7	11.8 µM	12.7 µM	10.4 µM	1.64	6.58	1.96	2.94	3.37	3.52	2.76
S=C1NCCN1C1=Nc2ccccc2CO1	> 100 µM	> 100 µM	> 100 µM		> 100 µM	> 100 µM	> 100 µM	> 100	> 100	73.5		> 100	> 100	> 100
COc1ccc(CNC(=O)[C@@H](C)N(C)C(=O)[C@@H]2CCCN2C(=O)[C@H](C(C)C)N(C)C(=O)[C@@H](NC(=O)[C@H](C(C)C)N(Cc2ccccc2)Cc2ccccc2)C(C)C)cc1OC (Bn2Val-V[NMeV]P[dNMeA]-{NH(3,4-diMeO-benzyl)})	14.6 µM and 24.7 µM	17.6 µM and 28.3 µM	50 µM and 81.1 µM		19.7 µM and 24.1 µM	15.1 µM and 27.1 µM	32.9 µM and 40.1 µM	10	13.5		19.5	11.1	9.43	6.35
COc1ccc(CNC(=O)COc2ccc(/C=N/Nc3nc4ccccc4s3)cc2)cc1	5.42 µM	> 100 µM	5.36 µM	19.1	> 100 µM	3.41 µM	19.4 µM	2.1	4.35	1.69	2.24	3.47	1.61	3.12
C[C@@H]1Cc2c([nH]c3ccccc23)[C@@H](c2c(F)cc(/C=C/C(=O)O)cc2F)N1CC(C)(C)F	29.1 µM	30.9 µM	51.3 µM	45.4	31 µM	26.3 µM	36.5 µM	13.8	13.1	0.0916	12.8	14	11.3	14.7
CN(C)c1ccc2c(c1)oc(=O)c1ccccc12	16.4 µM	34.3 µM	28.4 µM	97.2	23.1 µM	17.1 µM	44.9 µM							
NNC(=O)c1cnn(-c2ccnc3c(C(F)(F)F)cccc23)c1N	> 100 µM	> 100 µM	> 100 µM	> 100	> 100 µM	> 100 µM	> 100 µM	> 100	> 100	> 100	> 100	> 100	> 100	> 100

SMILES	TGI (OVCAR-3 ovarian)	TGI (SK-MEL-28 melanoma)	TGI (T-47D breast)	TGI (HS 578T breast) [µM]	TGI (MDA-MB-435)	TGI (BT-549 breast)	TGI (NCI/ADR-RES ovarian)	GI50 (OVCAR-3 ovarian) [µM]	GI50 (SK-MEL-28 melanoma) [µM]	GI50 (T-47D breast) [µM]	GI50 (HS 578T breast) [µM]	GI50 (MDA-MB-435) [µM]	GI50 (BT-549 breast) [µM]	GI50 (NCI/ADR-RES ovarian) [µM]
N#Cc1cnn2ccn(C3OC(COC(=O)c4ccccc4)C(OC(=O)c4ccccc4)C3OC(=O)c3ccccc3)c12 (stereo not given)	> 21.5 µM	> 21.5 µM	21.5 µM	21.5	> 21.5 µM	> 100 µM	> 21.5 µM							
COc1ccc(-n2cc(-c3ccc(OC)c(OC)c3)[nH]c2=S)cc1Cl	> 100 µM	> 100 µM	> 100 µM	> 100	> 100 µM		> 100 µM	> 100	> 100	> 100	38.9	> 100		> 100
O=C1c2ccccc2-c2c1c1cc3c(cc1c(=O)n2CCCCl)OCO3	32 µM	> 100 µM	> 100 µM	> 100	> 100 µM	> 100 µM	> 100 µM	11.4	19.2	> 100	> 100	29.4	45.9	24.9
ClCc1ccccc1CSc1ncnc2nc[nH]c12	> 60 µM	> 60 µM	> 60 µM	> 60	> 60 µM	> 60 µM	> 60 µM	> 60	> 60	> 60	> 60	> 60	> 60	> 60
CN1CCN(C(=S)N(C)C(=O)c2ccc(Cl)cc2)CC1	> 100 µM	> 100 µM	> 100 µM	> 100	> 100 µM	> 100 µM								
CN(C)S(=O)(=O)Nc1ccccn1	> 100 µM	> 100 µM		> 100	> 100 µM	> 100 µM	> 100 µM							
N#Cc1c(O)c2c(c(O)c1C#N)C(=O)c1ccccc1C2=O	2.94 µM	3.58 µM	9.2 µM	5.87		14.9 µM	7.25 µM	0.745	1.06	2.71	1.26		3.77	2.12
CC(=O)c1ccc(N(/C=C/C(=O)C(F)(F)F)CC(=O)c2ccc(Cl)c(Cl)c2)cc1	27.5 µM	40.7 µM	75.4 µM	45.2	11.7 µM	38.9 µM	38.4 µM	13.9	16.5	26.4	20.3	3.43	19.9	18.2
CC1=C(CCCOC(=O)NCCCl)C2=C(C)C3(CC3)[C@@](C)(O)C(=O)C2=C1	9.9 µM	8.03 µM	> 100 µM	87.4	99.4 µM	6.66 µM	> 100 µM	2.95	2.63	3.36	8.31	5.07	2.08	2.95
Clc1ccc(Cc2nc3cc4ccccc4cc3[nH]2)cc1	> 100 µM		88.6 µM	67.7	> 100 µM	> 100 µM	> 100 µM	14.4		23.1	12.4	27.8	14.1	22.9
O=[n+]1c(CBr)c(CBr)n([O-])c2ccccc21	3.25 µM	28.1 µM	6.8 µM	45.3	25 µM	5.13 µM	33.7 µM	1.79	14.6	2.58	17	12	1.85	14.5
COc1cccc(-c2nc(-c3cnccn3)n(Cc3ccccc3)n2)c1	> 100 µM	> 100 µM	> 100 µM		> 100 µM	> 100 µM								
CN=C1NC(=O)/C(=C/c2ccc3ncccc3c2)S1	> 25 µM	> 25 µM	24.4 µM	> 21	> 25 µM	> 23 µM	> 25 µM	9.11	10.5	5.24	6.24	4.06	6.12	13.9
Cc1c(N2C(=O)/C(=C\c3ccccc3O)N=C2c2ccccc2)c(=O)n(-c2ccccc2)n1C	> 100 µM	> 100 µM	> 100 µM	75.3	> 100 µM		> 100 µM	> 100	> 100	16.3	27.9	54		76.3
O=C(/C=C/c1cccs1)c1ccc(Cl)cc1		> 100 µM	> 100 µM	> 100			> 100 µM							
Clc1cccc(NC=Nc2ccc(-c3nc4ccccc4s3)cc2)c1	22.7 µM	18.4 µM	39 µM	> 50	32.7 µM	> 50 µM	32 µM	9.32	0.143	10.8	32.6	14.3	23.3	13.2
COc1cccc(-c2nn(-c3ccccc3)cc2-c2ccnc(NCCCNS(=O)(=O)c3cccc(F)c3)c2)c1	> 100 µM	> 100 µM	5.27 µM	> 100	58.8 µM	> 100 µM	> 100 µM	4.88	6.82	1.54	6.52	3.68	2.76	3.05
N#Cc1nc(-c2ccc(F)cc2)oc1S(=O)(=O)N1CCOCC1	3.18 µM	6.25 µM	5.23 µM	45.4	6.9 µM	23 µM	47.2 µM	1.75	2.41	2.11	15.1	2.38	10.8	13.4
O=C(O)Cc1c[nH]c2ccc(F)cc12	> 100 µM	> 100 µM	> 100 µM		> 100 µM	> 100 µM	> 100 µM							
